In brackets after ≈: the same amount, converted by molar mass.
How the values were obtained:
Type in all cases: cell-based
[1] = system: Streptococcus pneumoniae (ATCC6305); test: Microtitre plate assay, IC90 determination, SPN 6305; details: 90% inhibitory concentration for bacterial growth, 37° C., 24 hours, resazurin fluorescence
Description: (§1) The bacteria used in this study were grown overnight in flasks containing 100 ml Mueller-Hinton Broth (Becton Dickinson—cat. no. 275730) in sterile de-ionized water, with shaking, at 37° C. Stocks (0.5 ml/tube) were stored at −70° C. until use. Bacteria titrations were performed in microtiter plates to detect the TCID50, in which the TCID50 represents the dilution that gives rise to bacterial growth in 50% of inoculated cultures.
(§2) In general, an inoculum level of approximately 100 TCID50 was used for susceptibility testing.
(§3) Flat-bottom, sterile 96-well plastic microtiter plates were filled with 180 μl of sterile deionized water, supplemented with 0.25% BSA. Subsequently, stock solutions (7.8× final test concentration) of compounds were added in 45 μl volumes in column 2. Serial five-fold dilutions (45 μl in 180 μl) were made directly in the microtiter plates from column 2 to reach column 11. Untreated control samples with (column 1) and without (column 12) inoculum were included in each microtiter plate. Depending on the bacteria type, approximately 10 to 60 CFU per well of bacteria inoculum (100 TCID50), in a volume of 100 μl in 2.8× Mueller-Hinton broth medium, was added to the rows A to H, except column 12. The same volume of broth medium without inoculum was added to column 12 in row A to H. The cultures were incubated at 37° C. for 24 hours under a normal atmosphere (incubator with open air valve and continuous ventilation). At the end of incubation, one day after inoculation, the bacterial growth was quantitated fluorometrically. Therefore resazurin (0.6 mg/ml) was added in a volume of 20 μl to all wells 3 hours after inoculation, and the plates were re-incubated overnight. A change in colour from blue to pink indicated the growth of bacteria. The fluorescence was read in a computer-controlled fluorometer (Cytofluor Biosearch) at an excitation wavelength of 530 nm and an emission wavelength of 590 nm. The % growth inhibition achieved by the compounds was calculated according to standard methods. The IC90 (expressed in μg/ml) was defined as the 90% inhibitory concentration for bacterial growth.
(§4) BSU 3639 means Bacillus subtilis (ATCC43639); ECO 25922 means Escherichia coli (ATCC25922); EFA 14506 means Enterococcus faecalis (ATCC14506); EFA 29212 means Enterococcus faecalis (ATCC29212); LMO 49594 means Listeria monocytogenes (ATCC49594); PAE 27853 means Pseudomonas aeruginosa (ATCC27853); SMU 33402 means Streptococcus mutans (ATCC33402); SPN 6305 means Streptococcus pneumoniae (ATCC6305); SPY 8668 means Streptococcus pyogens (ATCC8668); STA 43300 means Staphylococcus aureus (ATCC43300); STA 25923 means Staphylococcus aureus (ATCC25923); STA 29213 means Staphylococcus aureus (ATCC29213); STA RMETH means methicilline resistant Staphylococcus aureus (MRSA) (a clinical isolate from the University of Antwerp). ATCC means American type tissue culture.

[2] = system: methicilline resistant Staphylococcus aureus (MRSA) (a clinical isolate from the University of Antwerp); test: Microtitre plate assay, IC90 determination, STA RMETH; details: 90% inhibitory concentration for bacterial growth, 37° C., resazurin fluorescence; for IC90: Staphylococcus aureus, MRSA, 24 h, read-out: IC90 (μg/ml) STA RMETH; for IC90 (μg/ml) STA RMETH: 24 hours
Description: as §1, §2, §3, §4

[3] = system: Listeria monocytogenes (ATCC49594); test: Microtitre plate assay, IC90 determination, LMO 49594; details: 90% inhibitory concentration for bacterial growth, 37° C., resazurin fluorescence; for IC90 (μg/ml) LMO 49594: 24 hours
Description: as §1, §2, §3, §4

[4] = system: Streptococcus pyogens (ATCC8668); test: Microtitre plate assay, IC90 determination, SPY 8668; details: 90% inhibitory concentration for bacterial growth, 37° C., resazurin fluorescence; for IC90 (μg/ml) SPY 8668: 24 hours
Description: as §1, §2, §3, §4

[5] = system: Staphylococcus aureus (ATCC43300); test: Microtitre plate assay, IC90 determination, STA 43300; details: 90% inhibitory concentration for bacterial growth, 37° C., 24 hours, resazurin fluorescence
Description: as §1, §2, §3, §4

[6] = system: Pseudomonas aeruginosa (ATCC27853); test: Microtitre plate assay, IC90 determination, PAE 27853; details: 90% inhibitory concentration for bacterial growth, 37° C., resazurin fluorescence; for IC90 (μg/ml) PAE 27853: 24 hours
Description: as §1, §2, §3, §4

[7] = system: Streptococcus mutans (ATCC33402); test: Microtitre plate assay, IC90 determination, SMU 33402; details: 90% inhibitory concentration for bacterial growth, 37° C., 24 hours, resazurin fluorescence
Description: as §1, §2, §3, §4

[8] = system: Enterococcus faecalis (ATCC29212); test: Microtitre plate assay, IC90 determination, EFA 29212; details: 90% inhibitory concentration for bacterial growth, 37° C., resazurin fluorescence; for IC90: Enterococcus faecalis, ATCC29212, 24 h, read-out: IC90 (μg/ml) EFA 29212; for IC90 (μg/ml) EFA 29212: 24 hours
Description: as §1, §2, §3, §4

[9] = system: Staphylococcus aureus (ATCC25923); test: Microtitre plate assay, IC90 determination, STA 25923; details: 90% inhibitory concentration for bacterial growth, 37° C., resazurin fluorescence; for IC90: Staphylococcus aureus, ATCC25923, 24 h, read-out: IC90 (μg/ml) STA 25923; for IC90 (μg/ml) STA 25923: 24 hours
Description: as §1, §2, §3, §4

[10] = system: Enterococcus faecalis (ATCC14506); test: Microtitre plate assay, IC90 determination, EFA 14506; details: 90% inhibitory concentration for bacterial growth, 37° C., 24 hours, resazurin fluorescence
Description: as §1, §2, §3, §4

[11] = system: Bacillus subtilis (ATCC43639); test: Microtitre plate assay, IC90 determination, BSU 43639; details: 90% inhibitory concentration for bacterial growth, 37° C., resazurin fluorescence; for IC90 (μg/ml) BSU 43639: 24 hours
Description: as §1, §2, §3, §4

[12] = system: Staphylococcus aureus (ATCC29213); test: Microtitre plate assay, IC90 determination, STA 29213; details: 90% inhibitory concentration for bacterial growth, 37° C., 24 hours, resazurin fluorescence
Description: as §1, §2
(§5) Flat-bottom, sterile 96-well plastic microtiter plates were filled with 180 μl of sterile deionized water, supplemented with 0.25% BSA. Subsequently, stock solutions (7.8× final test concentration) of compounds were added in 45 μl volumes in column 2. Serial five-fold dilutions (45 μl in 180 μl) were made directly in the microtiter plates from column 2 to reach column 11. Untreated control samples with (column 1) and without (column 12) inoculum were included in each microtiter plate. […] At the end of incubation, one day after inoculation, the bacterial growth was quantitated fluorometrically. […] The fluorescence was read in a computer-controlled fluorometer (Cytofluor Biosearch) at an excitation wavelength of 530 nm and an emission wavelength of 590 nm. The % growth inhibition achieved by the compounds was calculated according to standard methods. […]

[13] = system: Escherichia coli (ATCC25922); test: Microtitre plate assay, IC90 determination, ECO 25922; details: 90% inhibitory concentration for bacterial growth, 37° C., 24 hours, resazurin fluorescence, read-out: IC90 (μg/ml) ECO 25922
Description: as §1, §2, §5

IC90 (μg/ml) SPN 6305 [1]	IC90 (μg/ml) LMO 49594 [3]	IC90 (μg/ml) SPY 8668 [4]	IC90 (μg/ml) STA 43300 [5]	IC90 (μg/ml) PAE 27853 [6]	IC90 (μg/ml) SMU 33402 [7]	IC90 [8]	IC90 [9]	IC90 (μg/ml) EFA 14506 [10]	IC90 (μg/ml) BSU 43639 [11]	IC90 (μg/ml) STA 25923 [9]	SMILES	IC90 [2]	IC90 (μg/ml) EFA 29212 [8]	IC90 (μg/ml) STA RMETH [2]	other results
6.2 µg/mL (≈ 11.2 µM)	2.5 µg/mL (≈ 4.5 µM)	2.8 µg/mL (≈ 5.04 µM)	5.6 µg/mL (≈ 10.1 µM)	5.0 µg/mL (≈ 9 µM)	12.4 µg/mL (≈ 22.3 µM)	5 µg/mL (≈ 9 µM)	9.9 µg/mL (≈ 17.8 µM)	9.9 µg/mL (≈ 17.8 µM)	11.1 µg/mL (≈ 20 µM)	–	COc1nc2ccc(Br)cc2cc1C(c1ccccc1)C(O)(CCN(C)C)c1cccc2ccccc12 (stereo not shown) [Compound 14]	14 µg/mL (≈ 25.2 µM)	–	–	–
1.1 µg/mL (≈ 2.03 µM)	–	10.8 µg/mL (≈ 19.9 µM)	–	–	10.8 µg/mL (≈ 19.9 µM)	–	–	–	–	10.8 µg/mL (≈ 19.9 µM)	CCNCCC(O)(c1ccc(F)cc1F)C(c1ccccc1)c1cc2cc(Br)ccc2nc1OC (racemic) [Compound A]	–	–	–	IC90 (μg/ml) STA 29213 [12]: 12.1 µg/mL (≈ 22.3 µM)
2.8 µg/mL (≈ 5.04 µM)	11.1 µg/mL (≈ 20 µM)	8.8 µg/mL (≈ 15.8 µM)	11.1 µg/mL (≈ 20 µM)	2.2 µg/mL (≈ 3.96 µM)	3.5 µg/mL (≈ 6.3 µM)	–	–	11.1 µg/mL (≈ 20 µM)	11.1 µg/mL (≈ 20 µM)	11.1 µg/mL (≈ 20 µM)	COc1nc2ccc(Br)cc2cc1C(c1ccccc1)C(O)(CCN(C)C)c1cccc2ccccc12 (stereo not shown) [Compound 13]	–	8.8 µg/mL (≈ 15.8 µM)	–	–
–	23.6 µg/mL (≈ 44.7 µM)	26.5 µg/mL (≈ 50.1 µM)	–	–	21.0 µg/mL (≈ 39.7 µM)	10.5 µg/mL (≈ 19.9 µM)	–	–	–	–	COc1nc2ccc(Br)cc2cc1C(c1ccccc1)C(O)(CCn1ccnc1)c1ccccc1 (stereo not shown) [Compound 50]	–	–	10.5 µg/mL (≈ 19.9 µM)	IC90 ([12]; read-out: IC90 (μg/ml) STA 29213): 26.5 µg/mL (≈ 50.1 µM); IC90 ([11]; Bacillus subtilis, ATCC43639, 24 h, read-out: IC90 (μg/ml) BSU 43639): 10.5 µg/mL (≈ 19.9 µM)
13.1 µg/mL (≈ 25.1 µM)	–	–	13.1 µg/mL (≈ 25.1 µM)	–	4.6 µg/mL (≈ 8.82 µM)	4.6 µg/mL (≈ 8.82 µM)	9.3 µg/mL (≈ 17.8 µM)	–	–	–	CSc1nc2ccc(Br)cc2cc1C(c1ccccc1)C(O)(CCN(C)C)c1ccccc1 (stereo not shown) [Compound 32]	13.1 µg/mL (≈ 25.1 µM)	–	–	IC90 ([3]; Listeria monocytogenes, ATCC49594, 24 h, read-out: IC90 (μg/ml) LMO 49594): 4.6 µg/mL (≈ 8.82 µM); IC90 [13]: 11.7 µg/mL (≈ 22.4 µM); IC90 ([4]; Streptococcus, ATCC8668, 24 h, read-out: IC90 (μg/ml) SPY 8668): 4.6 µg/mL (≈ 8.82 µM); IC90 ([6]; Pseudomonas aeruginosa, ATCC27853, 24 h, read-out: IC90 (μg/ml) PAE 27853): 10.4 µg/mL (≈ 19.9 µM)

SMILES	IC90 (μg/ml) SPN 6305 [1]	IC90 (μg/ml) LMO 49594 [3]	IC90 (μg/ml) SPY 8668 [4]	IC90 (μg/ml) STA 43300 [5]	IC90 (μg/ml) PAE 27853 [6]	IC90 (μg/ml) SMU 33402 [7]	IC90 [8]	IC90 [9]	IC90 (μg/ml) EFA 14506 [10]	IC90 (μg/ml) BSU 43639 [11]	IC90 (μg/ml) STA 25923 [9]	IC90 [2]	IC90 (μg/ml) EFA 29212 [8]	IC90 (μg/ml) STA RMETH [2]	other results
COc1nc2ccc(Br)cc2cc1C(c1ccccc1)C(O)(CCN1CCN(C)CC1)c1ccc2cc(Br)ccc2c1 (racemic) [Compound 154]	–	27.4 µg/mL (≈ 39.7 µM)	27.4 µg/mL (≈ 39.7 µM)	–	–	–	–	–	–	10.9 µg/mL (≈ 15.8 µM)	13.8 µg/mL (≈ 20 µM)	–	27.4 µg/mL (≈ 39.7 µM)	24.5 µg/mL (≈ 35.5 µM)	–

Reference: patent US7709498B2, “Quinoline derivatives as antibacterial agents” (Janssen Pharmaceutica N.V., priority 2005, dated 2010)
